We go through 20 compounds from patent publication US20230227427A1, “IL-17A MODULATORS” (SANOFI, priority 2010, published 2023).

Read-outs that look alike come from different tables or passages of the source.

In the assay the target is T1, human recombinant IL-17A (Homo sapiens, UniProt Q16552).
T1 construct: purchased R&D Systems 7955-IL/CF
T1 sequence (Q16552 24-155): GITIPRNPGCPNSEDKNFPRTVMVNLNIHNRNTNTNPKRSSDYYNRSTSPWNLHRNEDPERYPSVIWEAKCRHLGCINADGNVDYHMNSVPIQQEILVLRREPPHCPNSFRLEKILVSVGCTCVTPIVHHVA
Kind of assay: IL-17A AlphaLISA assay (block binding of IL-17A to its receptor IL-17RA). The following applies: read-out: AlphaLISA pIC50 (converted). Summed up: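 PBS with 0.05% Tween-20 and 0.1% BSA. IL-17A stock 7.5 nM, IL-17RA/Fc stock 5 nM; compound–cytokine pre-incubation 24 h at RT, or 30 min where marked, then 90 min with receptor. pIC50 from 4-parameter logistic AlphaLISA signal, normalised to DMSO and 6 μM reference inhibitor.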
For orientation: In Alpha technology, singlet oxygen from a donor bead excites a nearby acceptor bead.

Where [1] appears, read: compounds pre-incubated with the IL-17A for 24 h at room temperature.
[2] abbreviates: compounds pre-incubated with the IL-17A for 30 min (indicated by * in Table A).

Take `Cn1nccc1C(=O)N[C@H](C(=O)Nc1ccc(C2CCOCC2)cc1)[C@H]1CC[C@H](C)CC1` [Example 93, 1-Methyl-N—((S)-1-((1r,4S)-4-methylcyclohexyl)-2-oxo-2-((4-(tetrahydro-2H-pyran-4-yl)phenyl)amino)ethyl)-1H-pyrazole-5-carboxamide]: the IC50 under setting [1] is 50.1 nM.
Turning to `Cc1c(-c2ccc(NC(=O)[C@@H](NC(=O)c3ccnn3C)C(c3ccccc3)c3ccccc3)nc2)ccc(=O)n1C` [Example 72, (S)—N-(1-((1′,2′-dimethyl-6′-oxo-1′,6′-dihydro-[3,3′-bipyridin]-6-yl)amino)-1-oxo-3,3-diphenylpropan-2-yl)-1-methyl-1H-pyrazole-5-carboxamide], under setting [1], the IC50 was 79.4 nM.
Consider `CCc1nocc1C(=O)N[C@H](C(=O)Nc1ccc(-c2ncncc2C)cn1)[C@H]1CC[C@H](C)CC1` [Example 140, 3-Ethyl-N—((S)-1-((1r,4S)-4-methylcyclohexyl)-2-((5-(5-methylpyrimidin-4-yl)pyridin-2-yl)amino)-2-oxoethyl)isoxazole-4-carboxamide], for which the IC50 under setting [2] was 631 nM.
As for `Cn1nccc1C(=O)N[C@H](C(=O)Nc1ccc(C2=CCOCC2)cc1)C(c1ccccc1)c1ccccc1` [Example 81, (S)—N-(1-((4-(3,6-dihydro-2H-pyran-4-yl)phenyl)amino)-1-oxo-3,3-diphenylpropan-2-yl)-1-methyl-1H-pyrazole-5-carboxamide], the IC50 under setting [1] is 12.6 nM.
In the case of `Cc1noc(C)c1-c1ccc(NC(=O)[C@@H](NC(=O)c2ccnn2C)C(c2ccccc2)c2ccccc2)cc1F` [Example 60, (S)—N-(1-((4-(3,5-dimethylisoxazol-4-yl)-3-fluorophenyl)amino)-1-oxo-3,3-diphenylpropan-2-yl)-1-methyl-1H-pyrazole-5-carboxamide], the IC50 under setting [1] is 39.8 nM.
Same read-out and setting: the value for `Cc1nn(Cc2ccccc2)c(C)c1-c1ccc(NC(=O)[C@@H](NC(=O)c2ccnn2C)C(c2ccccc2)c2ccccc2)cc1` [Example 31, (S)—N-(1-((4-(1-benzyl-3,5-dimethyl-1H-pyrazol-4-yl)phenyl)amino)-1-oxo-3,3-diphenylpropan-2-yl)-1-methyl-1H-pyrazole-5-carboxamide] was 631 nM.
Regarding `Cn1nccc1C(=O)N[C@H](C(=O)Nc1ccc(-c2ccnc3[nH]ccc23)cc1)C(c1ccccc1)c1ccccc1` [Example 21, (S)—N-(1-((4-(1H-pyrrolo[2,3-b]pyridin-4-yl)phenyl)amino)-1-oxo-3,3-diphenylpropan-2-yl)-1-methyl-1H-pyrazole-5-carboxamide], the IC50 under setting [1] is 39.8 nM.
As to `Cc1noc(C)c1-c1ccc(NC(=O)[C@@H](NC(=O)c2cnnn2C)C2CCCCCC2)nc1` [Example 117, (S)—N-(1-Cycloheptyl-2-((5-(3,5-dimethylisoxazol-4-yl)pyridin-2-yl)amino)-2-oxoethyl)-1-methyl-1H-1,2,3-triazole-5-carboxamide], under setting [2], the IC50 is 501 nM.
The same measure, in the same setting: the value for `Cc1c(-c2ccc(NC(=O)[C@@H](NC(=O)c3ccnn3C)C3CCCCC3)cc2)ccc(=O)n1C` [Example 119, (S)—N-(1-Cyclohexyl-2-((4-(1,2-dimethyl-6-oxo-1,6-dihydropyridin-3-yl)phenyl)amino)-2-oxoethyl)-1-methyl-1H-pyrazole-5-carboxamide] was 501 nM.
As for `Cn1nccc1C(=O)N[C@H](C(=O)Nc1ccc(-c2c[nH]c(=O)c3cccnc23)c(F)c1)C(c1ccccc1)c1ccccc1` [Example 66, (S)—N-(1-((3-fluoro-4-(5-oxo-5,6-dihydro-1,6-naphthyridin-8-yl)phenyl)amino)-1-oxo-3,3-diphenylpropan-2-yl)-1-methyl-1H-pyrazole-5-carboxamide], the IC50 under setting [1] was 25.1 nM.
Regarding `Cc1cnn(C)c1-c1ccc(NC(=O)C(NC(=O)c2ccnn2C)C2CCCCCCC2)nc1` (centres unmarked) [Example 113, N-(1-Cyclooctyl-2-((5-(1,4-dimethyl-1H-pyrazol-5-yl)pyridin-2-yl)amino)-2-oxoethyl)-1-methyl-1H-pyrazole-5-carboxamide], the IC50 under setting [2] was 158 nM.
Still for that read-out and setting: the figure for `Cc1cnn(C)c1-c1ccc(NC(=O)C(NC(=O)c2ccnn2C)C2CC3CCC2C3)nc1` (centres unmarked) [Example 184, N-(1-(bicyclo[2.2.1]heptan-2-yl)-2-((5-(1,4-dimethyl-1H-pyrazol-5-yl)pyridin-2-yl)amino)-2-oxoethyl)-1-methyl-1H-pyrazole-5-carboxamide] is 251 nM.
Consider `Cn1nccc1C(=O)N[C@H](C(=O)Nc1ccc(-c2ccncc2CC(=O)N2CCCC2)cc1)C(c1ccccc1)c1ccccc1` [Example 78, (S)-1-methyl-N-(1-oxo-1-((4-(3-(2-oxo-2-(pyrrolidin-1-yl)ethyl)pyridin-4-yl)phenyl)amino)-3,3-diphenylpropan-2-yl)-1H-pyrazole-5-carboxamide], for which the IC50 under setting [1] is 25.1 nM.
Regarding `Cc1cnn(C)c1-c1ccc(NC(=O)C(NC(=O)c2ccnn2C)[C@H]2CC[C@H](C(F)(F)F)CC2)nc1` (some centres unmarked) [Example 185, N-(2-((5-(1,4-dimethyl-1H-pyrazol-5-yl)pyridin-2-yl)amino)-2-oxo-1-((1r,4r)-4-(trifluoromethyl)cyclohexyl)ethyl)-1-methyl-1H-pyrazole-5-carboxamide], the IC50 under setting [2] is 631 nM.
Consider `CCn1nccc1C(=O)N[C@H](C(=O)Nc1ccc(-c2c(C)cncc2C)cn1)[C@H]1CC[C@H](C)CC1` [Example 92, N—((S)-2-((3′,5′-Dimethyl-[3,4′-bipyridin]-6-yl)amino)-1-((1r,4S)-4-methylcyclohexyl)-2-oxoethyl)-1-ethyl-1H-pyrazole-5-carboxamide], for which the IC50 under setting [1] is 20 nM.
On the same count and under the same terms, the value for `Cn1nccc1C(=O)N[C@H](C(=O)Nc1ccc(-c2cnc(=O)[nH]c2)c(F)c1)C(c1ccccc1)c1ccccc1` [Example 64, (S)—N-(1-((3-fluoro-4-(2-oxo-1,2-dihydropyrimidin-5-yl)phenyl)amino)-1-oxo-3,3-diphenylpropan-2-yl)-1-methyl-1H-pyrazole-5-carboxamide] was 398 nM.
Regarding `CCc1nocc1C(=O)NC(C(=O)Nc1ccc(-c2c(C)cnn2C)cn1)[C@H]1CC[C@H](C(F)(F)F)CC1` (some centres unmarked) [Example 187, N-(2-((5-(1,4-dimethyl-1H-pyrazol-5-yl)pyridin-2-yl)amino)-2-oxo-1-((1r,4r)-4-(trifluoromethyl)cyclohexyl)ethyl)-3-ethylisoxazole-4-carboxamide], the IC50 under setting [2] was 398 nM.
Take `Cn1nccc1C(=O)N[C@H](C(=O)Nc1ccc(-c2c(O)cnn2C)cn1)C1CCCCCC1` [Example 166, (S)—N-(1-cycloheptyl-2-((5-(4-hydroxy-1-methyl-1H-pyrazol-5-yl)pyridin-2-yl)amino)-2-oxoethyl)-1-methyl-1H-pyrazole-5-carboxamide]: the IC50 under setting [2] was 631 nM.
Regarding `Cc1cncc(C)c1-c1ccc(NC(=O)[C@@H](NC(=O)c2ccnn2C)C(c2ccccc2)c2ccccc2)cc1Cl` [Example 55, (S)—N-(1-((3-chloro-4-(3,5-dimethylpyridin-4-yl)phenyl)amino)-1-oxo-3,3-diphenylpropan-2-yl)-1-methyl-1H-pyrazole-5-carboxamide], the IC50 under setting [1] was 100 nM.
As for `Cc1cnn(C)c1-c1ccc(NC(=O)[C@@H](NC(=O)c2conc2C)C2CCCCCC2)nc1` [Example 136, (S)—N-(1-Cycloheptyl-2-((5-(1,4-dimethyl-1H-pyrazol-5-yl)pyridin-2-yl)amino)-2-oxoethyl)-3-methylisoxazole-4-carboxamide], the IC50 under setting [2] is 63.1 nM.
